# Test results taken from article PMC3231123, “A Bacterial Biosensor for Oxidative Stress Using the Constitutively Expressed Redox-Sensitive Protein roGFP2” (Sensors (Basel, Switzerland), 2010).
# Target: T1, roGFP2 (Aequorea victoria, UniProt P42212, C48S/S65T/Q80R/S147C/Q204C)
# T1 construct: gene GFP; redox-sensitive GFP mutant, His tag (pRSET-roGFP2), expressed in E. coli DH5alpha, Ni-NTA purified, DTT-reduced then desalted
# Assay: […] nm excitation fluorescence ratio of isolated roGFP2, plate reader
# Conditions: 1 ppm menadione; DTT-reduced roGFP2 1.39 ug/mL; 75 mM HEPES pH 7.0, 140 mM NaCl; monitored 5 min; oxidation of roGFP2, not reversible binding
structure (smiles),measurement,value
"CC1=CC(=O)c2ccccc2C1=O [menadione, 2-methyl-1,4-naphtoquinone]",% change of 400/490 nm ratio vs t = 0 at 1 ppm,9.1 to 29.4%
